Measurements published in patent US20250197372A1 (priority 2020, published 2025).

Target: recombinant human GAA (acid alpha-glucosidase) (Homo sapiens, UniProt P10253)
Experiment: Acid alpha-glucosidase (GAA) assay (4-methylumbelliferyl-alpha-D-pyranoside substrate, fluorescence)
Assay type: biochemical
How it was run: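 IC50 from 4-PL curve fit of percent inhibition, based on fluorescence (365/440 nm) of released methylumbelliferone relative to uninhibited enzyme. Compound dilutions and human GAA incubated 60 min, 37 °C, before 20 min substrate reaction at 37 °C, quenched at pH 10.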

Q: Which IC50 does the source give for `[N-]=[N+]=Nc1ccc(NCCC23CC(CCN4C[C@H](O)[C@@H](O)[C@H](O)[C@H]4CO)(C2)C3)c([N+](=O)[O-])c1` [Compound 1103, (2R,3R,4R,5S)-1-[2-(3-{2-[(4-azido-2-nitrophenyl)amino]ethyl}bicyclo[1.1.1]pentan-1-yl)ethyl]-2-(hydroxymethyl)piperidine-3,4,5-triol] here?
A: 2.66 µM

Q: How did the IC50 turn out when `[N-]=[N+]=Nc1ccc(NCc2ccc(Cc3ccc(CN4C[C@H](O)[C@@H](O)[C@H](O)[C@H]4CO)cc3)cc2)c([N+](=O)[O-])c1` [Compound 1105, (2R,3R,4R,5S)-1-({4-[(4-{[(4-azido-2-nitrophenyl)amino]methyl}phenyl)methyl]phenyl}methyl)-2-(hydroxymethyl)piperidine-3,4,5-triol] was run?
A: 0.06 µM

Q: For `[N-]=[N+]=Nc1ccc(NCC[C@H]2CC[C@@H](CCN3C[C@H](O)[C@@H](O)[C@H](O)[C@H]3CO)CC2)c([N+](=O)[O-])c1` [Compound 1106, (2R,3R,4R,5S)-2-(hydroxymethyl)-1-{2-[(1s,4s)-4-{2-[(4-azido-2-nitrophenyl)amino]ethyl}cyclohexyl]ethyl}piperidine-3,4,5-triol], which IC50 is on record?
A: 0.036 µM

Q: `[N-]=[N+]=Nc1ccc(NCC[C@H]2CC[C@H](CCN3C[C@H](O)[C@@H](O)[C@H](O)[C@H]3CO)CC2)c([N+](=O)[O-])c1` [Compound 1107, (2R,3R,4R,5S)-2-(hydroxymethyl)-1-{2-[(1r,4r)-4-{2-[(4-azido-2-nitrophenyl)amino]ethyl}cyclohexyl]ethyl}piperidine-3,4,5-triol] was tested. Which IC50 did it give?
A: 3.19 µM

Q: With `O=[N+]([O-])c1cc(CN2CCCO2)ccc1NCCc1ccc(CCN2C[C@H](O)[C@@H](O)[C@H](O)[C@H]2CO)cc1` [Compound 1108, (2R,3R,4R,5S)-2-(hydroxymethyl)-1-(2-{4-[2-({2-nitro-4-[(1,2-oxazolidin-2-yl)methyl]phenyl}amino)ethyl]phenyl}ethyl)piperidine-3,4,5-triol] as the compound, how does the IC50 read?
A: 0.311 µM

Q: How did the IC50 turn out when `O=[N+]([O-])c1cc(-c2cccnn2)ccc1NCCc1ccc(CCN2C[C@H](O)[C@@H](O)[C@H](O)[C@H]2CO)cc1` [Compound 1109, (2R,3R,4R,5S)-2-(hydroxymethyl)-1-{2-[4-(2-{[2-nitro-4-(pyridazin-3-yl)phenyl]amino}ethyl)phenyl]ethyl}piperidine-3,4,5-triol] was run?
A: 0.003 µM

Q: Which IC50 does the source give for `O=[N+]([O-])c1cc(-c2ccncc2)ccc1NCCc1ccc(CCN2C[C@H](O)[C@@H](O)[C@H](O)[C@H]2CO)cc1` [Compound 1110, (2R,3R,4R,5S)-2-(hydroxymethyl)-1-{2-[4-(2-{[2-nitro-4-(pyridin-4-yl)phenyl]amino}ethyl)phenyl]ethyl}piperidine-3,4,5-triol] here?
A: 0.007 µM

Q: Which IC50 does the source give for `O=[N+]([O-])c1cc(-c2ncccn2)ccc1NCCc1ccc(CCN2C[C@H](O)[C@@H](O)[C@H](O)[C@H]2CO)cc1` [Compound 1111, (2R,3R,4R,5S)-2-(hydroxymethyl)-1-{2-[4-(2-{[2-nitro-4-(pyrimidin-2-yl)phenyl]amino}ethyl)phenyl]ethyl}piperidine-3,4,5-triol] here?
A: 0.02 µM

Q: How did the IC50 turn out when `O=[N+]([O-])c1cc(-c2ncco2)ccc1NCCc1ccc(CCN2C[C@H](O)[C@@H](O)[C@H](O)[C@H]2CO)cc1` [Compound 1112, (2R,3R,4R,5S)-2-(hydroxymethyl)-1-{2-[4-(2-{[2-nitro-4-(1,3-oxazol-2-yl)phenyl]amino}ethyl)phenyl]ethyl}piperidine-3,4,5-triol] was run?
A: 0.105 µM

Q: With `O=S(=O)(Nc1cc(NCCCCCCN2C[C@H](O)[C@@H](O)[C@H](O)[C@H]2CO)cc(-c2ncccn2)c1)C1CC1` [Compound 1114, N-[3-(pyrimidin-2-yl)-5-({6-[(2R,3R,4R,5S)-3,4,5-trihydroxy-2-(hydroxymethyl)piperidin-1-yl]hexyl}amino)phenyl]cyclopropanesulfonamide] as the compound, how does the IC50 read?
A: 0.016 µM

Q: With `[N-]=[N+]=Nc1ccc(NCCc2cc(CCN3C[C@H](O)[C@@H](O)[C@H](O)[C@H]3CO)cc(C3CCCCC3)c2)c([N+](=O)[O-])c1` [Compound 1115, (2R,3R,4R,5S)-1-[2-(3-{2-[(4-azido-2-nitrophenyl)amino]ethyl}-5-cyclohexylphenyl)ethyl]-2-(hydroxymethyl)piperidine-3,4,5-triol] as the compound, how does the IC50 read?
A: 5.49 µM
